Tests used:
[1] = molecular target: T1, SiaA-PP2C (Pseudomonas aeruginosa, UniProt Q9I6W0); assay: pNPP phosphatase assay, absorbance […] nm; type: biochemical; settings: read-out: % activity remaining at 0.1 mM fumonisin B1
T1 construct: gene PA0172; C-terminal PP2C phosphatase domain, residues 386-663, His-tagged (pNIC vectors), E. coli BL21(DE3) Rosetta; ~33 kDa monomer, homodimer (66 kDa by SEC)

[2] = molecular target: T1, SiaA-PP2C; assay: pNPP phosphatase assay, absorbance […] nm; type: biochemical; settings: 20 mM MgCl2, 20 mM Tris-HCl pH 7.5, 150 mM NaCl, 37°C; 0.5-5 mM pNPP
[3] = molecular target: C-terminal part of SiaA including the PP2C-like phosphatase domain (SiaA-PP2C, amino acids 386-663) (Pseudomonas aeruginosa); assay: SEC; size-exclusion chromatography of SiaA-PP2C alone; elution compared with markers
[4] = molecular target: SiaC (Pseudomonas aeruginosa); assay: SEC; SiaB and SiaC mixed in equal molar ratio, incubated at room temperature for 1 h, without ATP and MgCl2; Hiload 16/600 Superdex 200; peaks analysed by SDS-PAGE

**Q.** `CCCC[C@@H](C)[C@@H](OC(=O)C[C@@H](CC(=O)O)C(=O)O)[C@H](C[C@@H](C)C[C@H](O)CCCC[C@@H](O)C[C@H](O)[C@H](C)N)OC(=O)C[C@@H](CC(=O)O)C(=O)O` [fumonisin B1] was tested. Which remaining activity at 100 µM [1] did it give?
**A.** Its remaining activity at 100 µM is 35.5%.

**Q.** With `O=[N+]([O-])c1ccc(OP(=O)(O)O)cc1` [para-nitrophenyl phosphate] as the compound, how does the “pNPP phosphatase assay, absorbance 405 nm” value [2] read?
**A.** Its value is “phosphatase activity of SiaA-PP2C was assessed using para-nitrophenyl phosphate (pNPP)”.

**Q.** With “C-terminal part of SiaA including the PP2C-like phosphatase domain (SiaA-PP2C, amino acids 386-663) (domain or fragment)” as the compound, how does the stoichiometry N [3] read?
**A.** Its stoichiometry N is 2.

**Q.** Which stoichiometry N (SiaB:SiaC (2:2 complex)) [4] does the source give for SiaB (enzyme) here?
**A.** Its stoichiometry N (SiaB:SiaC (2:2 complex)) is 1.
